Measured values from publication PMC4728427, “Mechanism of allosteric activation of TMEM16A/ANO1 channels by a commonly used chloride channel blocker” (British Journal of Pharmacology, 2016).
Like-named read-outs stand apart in the source and are kept apart here.

Target: T1, Mouse TMEM16A (Mus musculus, UniProt Q8BHY3)
T1 construct: expressed in transfected cells; host or cells: HEK-293T
T1 sequence (Q8BHY3 1-960): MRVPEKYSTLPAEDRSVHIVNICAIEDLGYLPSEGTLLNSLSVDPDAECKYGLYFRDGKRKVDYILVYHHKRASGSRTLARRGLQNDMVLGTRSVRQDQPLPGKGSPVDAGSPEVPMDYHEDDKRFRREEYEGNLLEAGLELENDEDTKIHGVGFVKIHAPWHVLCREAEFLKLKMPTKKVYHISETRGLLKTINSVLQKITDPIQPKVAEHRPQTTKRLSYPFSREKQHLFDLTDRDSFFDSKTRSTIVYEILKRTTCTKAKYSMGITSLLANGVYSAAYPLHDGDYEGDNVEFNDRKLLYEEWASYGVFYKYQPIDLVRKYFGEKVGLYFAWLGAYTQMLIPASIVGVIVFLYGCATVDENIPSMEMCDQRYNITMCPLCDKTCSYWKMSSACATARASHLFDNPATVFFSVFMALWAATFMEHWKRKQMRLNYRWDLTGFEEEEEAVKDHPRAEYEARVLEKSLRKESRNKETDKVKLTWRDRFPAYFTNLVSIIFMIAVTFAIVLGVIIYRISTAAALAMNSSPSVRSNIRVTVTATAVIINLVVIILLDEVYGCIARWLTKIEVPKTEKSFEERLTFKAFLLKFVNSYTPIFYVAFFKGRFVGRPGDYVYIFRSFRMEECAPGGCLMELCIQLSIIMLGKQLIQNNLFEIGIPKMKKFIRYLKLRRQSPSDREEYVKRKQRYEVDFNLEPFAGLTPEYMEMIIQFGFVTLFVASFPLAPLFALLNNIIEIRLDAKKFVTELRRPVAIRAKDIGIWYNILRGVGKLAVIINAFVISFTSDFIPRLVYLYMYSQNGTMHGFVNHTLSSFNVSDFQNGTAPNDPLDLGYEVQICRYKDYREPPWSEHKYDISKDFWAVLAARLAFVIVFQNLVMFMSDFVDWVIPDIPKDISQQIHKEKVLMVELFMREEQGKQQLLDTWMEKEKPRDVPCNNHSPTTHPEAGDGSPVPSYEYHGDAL
Experiment: Whole-cell concentration-jump protocol separating A9C block and activation, 300 nM [Ca2+]i
Assay type: cell-based
Conditions: for Ki: read-out: K i(0); for I a/I 0 for activation / fractional inhibition (I b/I 0): 30 μM [A9C]ext, +70 mV; for EC50 / IC50: [A9C]ext; for EC50: read-out: EC50 (b) activation; for IC50: read-out: IC50 (a) inhibition
Protocol: TMEM16A currents were measured with the whole‐cell or inside‐out patch configuration of the patch‐clamp technique as detailed in the Supporting Information. The exchange of solutions was achieved by using a local perfusion system consisting of eight tubes of 1.2 mm diameter in which the tip of the patch pipette was inserted. In some experiments, ultra‐rapid (<50 ms) changes in A9C concentration ([A9C]) (‘concentration jumps’) were achieved using a computer‐controlled perfusion system (Warner Instruments, Hamden, CT, USA).
The relationship between [A9C] and TMEM16A current inhibition was obtained by measuring the currents at the end of 250 ms V m steps from +20 to +120 mV in 20 mV increments elicited every 2 s from a holding V m of −70 mV. TMEM16A currents measured in the presence of A9C (I b) were normalized to currents measured in the absence of A9C (I 0) and plotted against [A9C]. The concentration–response curves obtained were fit with the Hill equation of the form: (1) Ib/Io=1/1+A9C/Ki^γ,
where K i is the apparent A9C dissociation constant from the inhibitory site and γ is the coefficient of cooperativity (Hill coefficient).
The dose–response curves for activation by A9C were fitted with a modified Hill equation of the form: (2) Ia/Io=1+Amax−1/1+A9C/Kd^h,
where I a is the current in the presence of A9C, A max is the maximal current activation, K d is the apparent A9C dissociation constant from the activating site and h is the coefficient of cooperativity (Hill coefficient).
The relationships between the K i or K d and V m were fitted with the Woodhull equation (Woodhull, 1973): (3) Kx=Kx0exp−δxzFVm/RT.
The subscript ‘x’ stands for either ‘i’ or ‘d’. Thus, K i(0) or K d(0) are the apparent A9C dissociation constants from the inhibitory or activating site at 0 mV, z is the A9C electric valence (−1), δ i or δ d is the fraction of the V m sensed by A9C when bound to the inhibitory or activating site, F is Faraday's constant, R is the universal gas constant and T is the absolute temperature.
To study the activating effect of extracellular A9C on TMEM16A currents in isolation from A9C‐mediated inhibition, the following stimulation protocol was used. Whole‐cell currents were measured in response to a constant V m of +70 mV and in the presence of 300 nM [Ca^2+]i. Under these recording conditions and in the absence of extracellular A9C, the TMEM16A current remained at a constant amplitude (Figure 5A). When A9C was rapidly applied to the bath solution (concentration jump), the current amplitude rapidly declined before increasing to a new steady‐state level (Figure 5A and 5B). As A9C was removed, a dramatic increase in current was observed followed by a rapid return of the current to the level measured in the absence of A9C (Figure 5A and 5B). […] Rapid washout of A9C led to the fast relief of channel block, while the allosteric activating effect appeared to persist. Thus, the inhibitory effect of A9C was estimated by back‐extrapolating the current amplitude (I b) to the point when the drug was added. The current activation (I a) was measured via back‐extrapolation of the transient current spike observed upon drug washout.
Each cell was exposed to various [A9C]ext, and the extent of blockage at each concentration expressed as I b/I 0. The extent of current activation at each [A9C]ext was assessed as I a/I 0.
To determine if the activating effect of [A9C]ext on the TMEM16A current is V m‐dependent, experiments similar to those described above were performed at constant V m of +10 and +40 mV (Figure 5C). From the average data presented in Figure 5C and Table 2, it can be concluded that both inhibition and activation are V m‐dependent.
As outlined in the previous section, the current inhibition and activation induced by extracellular A9C presented a very similar degree of V m‐dependence. […]

[1] = high (154 mM) [Cl−]ext, 300 nM [Ca2+]i
[2] = low (34 mM) [Cl−]ext, 300 nM [Ca2+]i

**Q.** For O=C(O)c1c2ccccc2cc2ccccc12 [A9C, Anthracene‐9‐carboxylic acid], which Ki (300 nM [Ca2+]i (rounded in Discussion)) is on record?
**A.** ~8.4 mM

**Q.** What about the δ d (300 nM [Ca2+]i, Woodhull fit) of the same compound?
**A.** 0.66 ± 0.03

**Q.** What about the δ i (300 nM [Ca2+]i, Woodhull fit) of the same compound?
**A.** 0.68 ± 0.03

**Q.** And the Kd (300 nM [Ca2+]i, extracellular A9C, Woodhull fit, read-out: K d(0) (apparent dissociation constant from activating site at 0 mV))?
**A.** 8.95 ± 0.378 mM

**Q.** And the Ki (300 nM [Ca2+]i, extracellular A9C, Woodhull fit)?
**A.** 8.37 ± 0.372 mM

**Q.** What about the “I a/I 0 for activation” value [1] of the same compound?
**A.** 2.0 ± 0.1

**Q.** What about the “fractional inhibition (I b/I 0)” value [1] of the same compound?
**A.** 0.70 ± 0.02

**Q.** And the “I a/I 0 for activation” value [2]?
**A.** 8.2 ± 1.1

**Q.** What about the “fractional inhibition (I b/I 0)” value [2] of the same compound?
**A.** 0.46 ± 0.06

**Q.** And the “h (b) Hill coefficient (activation)” value (V m 10 mV, 300 nM [Ca2+]i)?
**A.** 1.1 ± 0.1 (n = 9)

**Q.** And the “γ (a) Hill coefficient (inhibition)” value (V m 10 mV, 300 nM [Ca2+]i)?
**A.** 0.4 ± 0.1 (n = 9)

**Q.** What about the EC50 (V m 10 mV, 300 nM [Ca2+]i) of the same compound?
**A.** 5.23 ± 0.582 mM

**Q.** And the IC50 (V m 10 mV, 300 nM [Ca2+]i)?
**A.** 4.71 ± 0.478 mM

**Q.** And the “h (b) Hill coefficient (activation)” value (V m 40 mV, 300 nM [Ca2+]i)?
**A.** 1.2 ± 0.1 (n = 11)

**Q.** What about the “γ (a) Hill coefficient (inhibition)” value (V m 40 mV, 300 nM [Ca2+]i) of the same compound?
**A.** 0.4 ± 0.1 (n = 11)

**Q.** What about the EC50 (V m 40 mV, 300 nM [Ca2+]i) of the same compound?
**A.** 1.12 ± 0.126 mM

**Q.** And the IC50 (V m 40 mV, 300 nM [Ca2+]i)?
**A.** 0.849 ± 0.14 mM

**Q.** And the “h (b) Hill coefficient (activation)” value (V m 70 mV, 300 nM [Ca2+]i)?
**A.** 1.1 ± 0.1 (n = 11)

**Q.** And the “γ (a) Hill coefficient (inhibition)” value (V m 70 mV, 300 nM [Ca2+]i)?
**A.** 0.4 ± 0.1 (n = 11)

**Q.** And the EC50 (V m 70 mV, 300 nM [Ca2+]i)?
**A.** 0.44 ± 0.069 mM

**Q.** What about the IC50 (V m 70 mV, 300 nM [Ca2+]i) of the same compound?
**A.** 0.171 ± 0.021 mM

**Q.** What about the “electric distance of activating binding site (δ d)” value (Woodhull analysis, rounded) of the same compound?
**A.** ~ 0.6
